≈ marks a conversion by molar mass, not a printed value. Like-named read-outs stand apart in the source and are kept apart here.
Assays:
[1] = system: MDR-MTB isolates LZ94 and LZ99; assay: microbe, parasite or virus in culture; format: cell-based, Mycobacterium tuberculosis
[2] = system: clinical Mycobacterium tuberculosis strains (HrRr: 77#, 76#, 80#); assay: microbe, parasite or virus in culture; format: cell-based; conditions: for MIC: Mycobacterium tuberculosis
[3] = Mycobacterium tuberculosis, read-out: MIC

Compound `CO[C@@H]1[C@@H](OC(=O)c2ccc(C)[nH]2)[C@@H](O)[C@H](Oc2ccc3c(O)c(NC(=O)c4ccc(O)c(CC=C(C)C)c4)c(=O)oc3c2Cl)OC1(C)C` [NSC 227186, [(3R,4S,5R,6S)-6-[8-chloro-4-hydroxy-3-[[4-hydroxy-3-(3-methylbut-2-enyl)benzoyl]amino]-2-oxochromen-7-yl]oxy-5-hydroxy-3-methoxy-2,2-dimethyloxan-4-yl]5-methyl-1H-pyrrole-2-carboxylate] has an MIC [1, 3] of 0.625 µg/mL (≈ 0.897 µM).
`CO[C@H]1/C=C/O[C@@]2(C)Oc3c(C)c(O)c4c(O)c(c(/C=N/N5CCN(C)CC5)c(O)c4c3C2=O)NC(=O)/C(C)=C\C=C\[C@H](C)[C@H](O)[C@@H](C)[C@@H](O)[C@@H](C)[C@H](OC(C)=O)[C@@H]1C` [Rifampicin, reference compound] gave an MIC ([1]; Mycobacterium tuberculosis) of 2 µg/mL (≈ 2.43 µM).
Compound `Cn1ccc(=Nc2ccc(NC(=O)c3ccc(N=c4ccn(C)c5ccc([N+](=O)[O-])cc45)cc3)cc2)cc1` [NSC 260594, 4-[(1-methyl-6-nitroquinolin-4-ylidene)amino]-N-[4-[(1-methylpyridin-4-ylidene)amino]phenyl]benzamide] has an MIC [1] of 1.25 µg/mL (≈ 2.48 µM), an MIC ([1]; Mycobacterium tuberculosis, Table 7 and text, […], read-out: MIC) of 0.625 µg/mL (≈ 1.24 µM) and an MIC [1, 3] of 0.625 µg/mL (≈ 1.24 µM). It also gave an MIC ([1]; Table 7 and text, […], listed as Formula XI) of 1.25 µg/mL (≈ 2.48 µM).
`Cc1ccc2[nH]c3c(c2c1)CCCC3NCc1ccccc1` (stereo not shown) [CAS 118498-98-9, N-benzyl-6-methyl-2,3,4,9-tetrahydro-1H-carbazol-1-amine] was tested, and the “concentration increase required to inhibit the drug resistant strains” value [2] was “four-fold”, the MIC [2] was 3.2 µg/mL (≈ 11 µM) and the MIC ([2]; strain 76#, HrRr) was 25.6 µg/mL (≈ 88.2 µM). It also gave an MIC ([2]; strain 80#, HrRr) of 25.6 µg/mL (≈ 88.2 µM).

Reference: patent US11529354B2, “Methods and compositions for the treatment of tuberculosis” (PRESIDENT AND FELLOWS OF HARVARD COLLEGE, priority 2017, dated 2022)
